Experimental data taken from publication PMC7464485, “Antimicrobial Activities of Highly Bioavailable Organic Salts and Ionic Liquids from Fluoroquinolones” (Pharmaceutics, 2020).
Values after ≈ are worked out from the molar mass of the structure shown. Where two headings read alike, the source gives them in different places. Values belong to the compound of their own block, whether it stands above or below them.

Experiments:
[1] = test system: Staphylococcus aureus (ATCC 25923); assay: Antimicrobial activity (growth, OD 600 nm); format: cell-based
[2] = test system: Klebsiella pneumoniae (ATCC 11296); assay: Antimicrobial activity (growth, OD 600 nm); format: cell-based
[3] = test system: Bacillus subtilis (ATCC 6633); assay: Antimicrobial activity (growth, OD 600 nm); format: cell-based
[4] = cited from earlier work
[5] = in water at 25 °C, cited from earlier work
[6] = Critical micelle concentration via ionic conductivity; format: physicochemical; settings: for CMC: in water at 25 °C
[7] = test system: 3T3 mouse fibroblasts; assay: Cytotoxicity on 3T3 cells (MTT); format: cell-based
[8] = Staphylococcus aureus, ATCC25923, 0.001–10 µM, read-out: IC50 S. aureus
[9] = Klebsiella pneumoniae, ATCC11296, 0.001–10 µM, read-out: IC50 K. pneumoniae
[10] = Bacillus subtilis, ATCC6633, 0.001–10 µM, read-out: IC50 B. subtilis
[11] = 0.001–10 µM, read-out: IC50 S. aureus
[12] = relative decrease of inhibitory concentration vs ciprofloxacin
[13] = 0.001–10 µM, read-out: IC50 K. pneumoniae
[14] = 0.001–10 µM, read-out: IC50 B. subtilis
[15] = relative decrease of inhibitory concentration vs norfloxacin

SMILES: O=C(O)c1cn(C2CC2)c2cc(N3CCNCC3)c(F)cc2c1=O [Ciprofloxacin, ciprofloxacin, reference compound]
IC50 [1, 8]: 29.2 nM
IC50 [2, 9]: 196 nM
IC50 [3, 10]: 3.84 nM

SMILES: CCn1cc(C(=O)O)c(=O)c2cc(F)c(N3CCNCC3)cc21 [Norfloxacin, norfloxacin, reference compound]
IC50 [1, 8]: 123 nM
Solubility in water ([4]; 25 °C, neutral form): 370 µg/mL (≈ 1160 µM)
Solubility in water ([4]; 25 °C, value outside parentheses): 540 ± 20 µg/mL (≈ 1690 µM)
Solubility in water ([4]; 37 °C, value in parentheses): 850 ± 40 µg/mL (≈ 2660 µM)
Solubility in water ([4]; 37 °C, value outside parentheses): 840 ± 20 µg/mL (≈ 2630 µM)
IC50 [2, 9]: 255 nM
IC50 ([3]; 0.001–10 µM, listed as Nor, read-out: IC50 B. subtilis): 117 nM
IC50 [3, 10]: 97.7 nM

IC50 [1, 8]: > 10000 nM
IC50 [2, 9]: > 10000 nM
IC50 [3, 10]: > 10000 nM
SMILES: Cc1n(CCO)cc[n+]1C [[C2OHDMIM]Cl, reference compound]

SMILES: Cc1n(CCO)cc[n+]1C.O=C([O-])c1cn(C2CC2)c2cc(N3CCNCC3)c(F)cc2c1=O [[C2OHDMIM][Cip]]
IC50 [1, 11]: 21.2 nM
RDIC50 S. aureus [1, 12]: 1.4
IC50 [2, 13]: 51 nM
RDIC50 K. pneumoniae [2, 12]: 3.9
IC50 [3, 14]: 12.3 nM
RDIC50 B. subtilis [3, 12]: 0.3

SMILES: CCn1cc(C(=O)[O-])c(=O)c2cc(F)c(N3CCNCC3)cc21.Cc1n(CCO)cc[n+]1C [[C2OHDMIM][Nor]]
increased activity against S. aureus vs norfloxacin [1]: 60%
IC50 [1, 11]: 79.5 nM
RDIC50 S. aureus [1, 15]: 1.6
increase in activity against K. pneumoniae vs norfloxacin [2]: 40%
IC50 [2, 13]: 178 nM
RDIC50 K. pneumoniae [2, 15]: 1.4
lost activity against B. subtilis vs norfloxacin [3]: 20%
IC50 [3, 14]: 149 nM
RDIC50 B. subtilis [3, 15]: 0.8

SMILES: C[n+]1ccn(CCO)c1.O=C([O-])c1cn(C2CC2)c2cc(N3CCNCC3)c(F)cc2c1=O [[C2OHMIM][Cip]]
IC50 [2, 13]: 36.4 nM
RDIC50 K. pneumoniae [2, 12]: 5.4
IC50 [3, 14]: 15.8 nM
RDIC50 B. subtilis [3, 12]: 0.2

SMILES: CCn1cc(C(=O)[O-])c(=O)c2cc(F)c(N3CCNCC3)cc21.C[n+]1ccn(CCO)c1 [[C2OHMIM][Nor]]
IC50 [1, 11]: 91.7 nM
RDIC50 S. aureus [1, 15]: 1.3
IC50 [2, 13]: 201 nM
RDIC50 K. pneumoniae [2, 15]: 1.3
IC50 [3, 14]: 88.6 nM
RDIC50 B. subtilis [3, 15]: 1.3

IC50 [1, 8]: > 10000 nM
IC50 [2, 9]: > 10000 nM
IC50 [3, 10]: > 10000 nM
SMILES: C[n+]1ccn(CCO)c1 [[C2OHmim]Cl, reference compound]

SMILES: COCC[n+]1ccn(C)c1.O=C([O-])c1cn(C2CC2)c2cc(N3CCNCC3)c(F)cc2c1=O [[C3OMIM][Cip]]
IC50 [1, 11]: 82 nM
RDIC50 S. aureus [1, 12]: 0.4
IC50 [2, 13]: 47.6 nM
RDIC50 K. pneumoniae [2, 12]: 4.1
IC50 [3, 14]: 21.7 nM
RDIC50 B. subtilis [3, 12]: 0.2

SMILES: CCn1cc(C(=O)[O-])c(=O)c2cc(F)c(N3CCNCC3)cc21.COCC[n+]1ccn(C)c1 [[C3OMIM][Nor]]
IC50 [1, 11]: 107 nM
RDIC50 S. aureus [1, 15]: 1.1
IC50 [2, 13]: 224 nM
RDIC50 K. pneumoniae [2, 15]: 1.1
IC50 [3, 14]: 68.1 nM
RDIC50 B. subtilis [3, 15]: 1.7

IC50 [1, 8]: > 10000 nM
IC50 [2, 9]: > 10000 nM
IC50 [3, 10]: > 10000 nM
SMILES: COCCn1cc[n+](C)c1 [[C3Omim]Cl, reference compound]

SMILES: CCCCCCCCCCCCCCCC[n+]1ccccc1.[Cl-] [[C16Py]Cl]
CMC ([5]; ref 49): 1.067 mmol/L
CMC ([5]; ref 50): 0.96 mmol/L
CMC [6]: 1.063 mmol/L

SMILES: CCCCCCCCCCCCCCCC[n+]1ccccc1.O=C([O-])c1cn(C2CC2)c2cc(N3CCNCC3)c(F)cc2c1=O [[C16Py][Cip]]
activity against S. aureus [1]: almost no activity
IC50 [1, 11]: 1430 nM
RDIC50 S. aureus [1, 12]: 0.0
IC50 [7]: 4720 nM
IC50 ([7]; 0.03–10 µM, 24 h): 4720 nM
CMC [6]: 0.0816 mmol/L
IC50 [2, 13]: 9.88 nM
RDIC50 K. pneumoniae [2, 12]: 19.9
decrease of activity against B. subtilis in comparison with ciprofloxacin [3]: 40%
IC50 [3, 14]: 6.07 nM
RDIC50 B. subtilis [3, 12]: 0.6

SMILES: CCCCCCCCCCCCCCCC[n+]1ccccc1.CCn1cc(C(=O)[O-])c(=O)c2cc(F)c(N3CCNCC3)cc21 [[C16Py][Nor]]
IC50 [1, 11]: 10.8 nM
RDIC50 S. aureus [1, 15]: 11.4
IC50 [7]: 5170 nM
IC50 ([7]; 0.03–10 µM, 24 h): 5160 nM
decrease of CMC in comparison with [C16Py]Cl [6]: 95%
CMC [6]: 0.0539 mmol/L
increase in activity against K. pneumoniae vs norfloxacin [2]: 30%
IC50 [2, 13]: 203 nM
RDIC50 K. pneumoniae [2, 15]: 1.3
IC50 [3, 14]: 87.3 nM
RDIC50 B. subtilis [3, 15]: 1.3

SMILES: C[N+](C)(C)CCO.[Cl-] [[Ch]Cl, reference compound]
IC50 ([1]; Staphylococcus aureus, ATCC25923, read-out: IC50 S. aureus): > 10000 nM
IC50 ([2]; Klebsiella pneumoniae, ATCC11296, read-out: IC50 K. pneumoniae, 0.001–10 µM): > 10000 nM
IC50 ([3]; Bacillus subtilis, ATCC6633, read-out: IC50 B. subtilis): > 10000 nM

SMILES: C[N+](C)(C)CCO.O=C([O-])c1cn(C2CC2)c2cc(N3CCNCC3)c(F)cc2c1=O [[Ch][Cip]]
IC50 [1, 11]: 181 nM
RDIC50 S. aureus [1, 12]: 0.2
IC50 [2, 13]: 51.1 nM
IC50 [3, 14]: 20.6 nM
RDIC50 B. subtilis [3, 12]: 0.2

SMILES: CCn1cc(C(=O)[O-])c(=O)c2cc(F)c(N3CCNCC3)cc21.C[N+](C)(C)CCO [[Ch][Nor]]
IC50 [1, 11]: 127 nM
RDIC50 S. aureus [1, 15]: 1.0
IC50 [2, 13]: 199 nM
RDIC50 K. pneumoniae [2, 15]: 1.3
IC50 [3, 14]: 95.5 nM
RDIC50 B. subtilis [3, 15]: 1.2

IC50 [1, 8]: > 10000 nM
IC50 [2, 9]: > 10000 nM
IC50 [3, 10]: > 10000 nM
SMILES: CCn1cc[n+](C)c1 [[EMIM]Br, reference compound]

SMILES: CCn1cc[n+](C)c1.O=C([O-])c1cn(C2CC2)c2cc(N3CCNCC3)c(F)cc2c1=O [[EMIM][Cip]]
IC50 [1, 11]: 24.2 nM
RDIC50 S. aureus [1, 12]: 1.2
IC50 [2, 13]: 64.8 nM
RDIC50 K. pneumoniae [2, 12]: 3.0
IC50 [3, 14]: 16.2 nM
RDIC50 B. subtilis [3, 12]: 0.2

SMILES: CCn1cc(C(=O)[O-])c(=O)c2cc(F)c(N3CCNCC3)cc21.CCn1cc[n+](C)c1 [[EMIM][Nor]]
IC50 [1, 11]: 211 nM
RDIC50 S. aureus [1, 15]: 0.6
IC50 [2, 13]: 208 nM
RDIC50 K. pneumoniae [2, 15]: 1.2
IC50 [3, 14]: 24.5 nM
RDIC50 B. subtilis [3, 15]: 4.8
